The values below come from patent EP4722363A1, “RNAI AGENT FOR INHIBITING ANGPTL3 EXPRESSION AND USE THEREOF” (YUN HO BIO CO., LTD, priority 2023, dated 2024).

The subject of data set [1] is ANGPTL3 Protein. In words: PHH free uptake, inhibition of ANGPTL3, ELISA of supernatant. In kind it is cell-based. Particulars: primary human hepatocytes, 72 hours. As to the method: PHH cells were thawed and adjusted to a density of 6×10^5 cells/mL. Then, 10 µL of the compound from the dilution plate was added to the cell culture plate, resulting in final compound concentrations of 100, 40, 12.5, 5, and 2 nM. The cells were seeded into a 96-well plate at a density of 54,000 cells per well (90 µL/well), with a final culture volume of 100 µL per well. The cells were cultured in a 5% CO2 incubator at 37°C for 72 hours.
(§1) The supernatant from the PHH and PCH cultures from the previous steps was collected, transferred to a new 96-well V-bottom plate, and centrifuged. Human Angiopoietin-like 3 protein (hANGPTL3 protein; DANL30) ELISA test was performed according to the instructions of HANGPTL 3 protein Kit.
(§2) Data Analysis: Four Parameter Logistic method. This method constructs a standard curve by plotting, with the y-axis as the average absorbance of the standards and the x-axis as the concentration, drawing a best-fit curve through the points on the graph. The OD value of the log concentration of the sample's HANGPTL3 protein is determined against the best-fit line of the log concentration by regression analysis. [formula]
(§3) Sequences with good activity in Table 8 were evaluated for in vitro inhibitory activity against ANGPTL3 Protein in primary human hepatocytes (PHH) and primary cynomolgus monkey hepatocytes (PCH). Table 10. In Vitro Inhibitory Activity of MCPP-siRNAs against ANGPTL3 mRNA in PHH Cell Line

Data set [2] relates to ANGPTL3 Protein. Nature of the data set: PCH free uptake, inhibition of ANGPTL3, ELISA of supernatant. In kind it is cell-based. Particulars: primary cynomolgus monkey hepatocytes, 72 hours. As for the experimental part: PCH cells were resuscitated using 10% FBS InvitroGRO™ HT Medium, and subsequently, the cell density was adjusted to 3×10^5 cells/mL using 10% FBS InvitroGRO™ CP Medium. Then, 10 µL of the compound from the dilution plate was added to the cell culture plate, resulting in final compound concentrations of 25, 5, and 1 nM. The cells were seeded into a 96-well plate at a density of 27,000 cells per well (90 µL/well), with a final culture volume of 100 µL per well. The cells were cultured in a 5% CO2 incubator at 37 °C for 72 hours.
as §1, §2, §3
On the technique in general: ELISA stands for enzyme-linked immunosorbent assay.

As to “2008-011-001: GalNAc-conjugated modified ANGPTL3 siRNA, sense SEQ ID NO 40, antisense SEQ ID NO 28 (sense GAGAAGAACUACAUAUAAA; antisense UUUAUAUGUAGUUCUUCUCAG; GalNAc conjugated, chemically modified, pattern not given here) [Duplex 2008-011-001]”, it took 2.6 nM to reach half-maximal inhibition with ANGPTL3 Protein [1] (IC50). The “Average Inhibition in PCH %” value was 57.51% in the data set with ANGPTL3 Protein [2] (1nM), 72.91% in the data set with ANGPTL3 Protein [2] (5nM) and 77.81% in the data set on ANGPTL3 Protein [2] (25nM).
Take “2008-035-002: GalNAc-conjugated modified ANGPTL3 siRNA, sense SEQ ID NO 37, antisense SEQ ID NO 28 (sense GAGAAGAACUACAUAUAAA; antisense UUUAUAUGUAGUUCUUCUCAG; GalNAc conjugated, chemically modified, pattern not given here) [Duplex 2008-035-002]”: the midpoint of inhibition with ANGPTL3 Protein [1], the IC50, lay at 2.23 nM.
As for “2008-011-002: GalNAc-conjugated modified ANGPTL3 siRNA, sense SEQ ID NO 35, antisense SEQ ID NO 28 (sense GAGAAGAACUACAUAUAAA; antisense UUUAUAUGUAGUUCUUCUCAG; GalNAc conjugated, chemically modified, pattern not given here) [Duplex 2008-011-002]”, in the data set on ANGPTL3 Protein [1], the IC50 – broadly, the concentration that inhibits the measured activity by half – came to 0.75 nM. Moreover, the figures for the “Average Inhibition in PCH %” value with ANGPTL3 Protein [2] (1nM), with ANGPTL3 Protein [2] (5nM) and in the data set on ANGPTL3 Protein [2] (25nM) were 54.65%, 71.25% and 76.57%, respectively.
In turn, “2002-018-001: GalNAc-conjugated modified ANGPTL3 siRNA, sense SEQ ID NO 39, antisense SEQ ID NO 13 (sense CAUAGUGAAGCAAUCUAAU; antisense AUUAGAUUGCUUCACUAUGGA; GalNAc conjugated, chemically modified, pattern not given here) [Duplex 2002-018-001]” had an IC50 in the data set with ANGPTL3 Protein [1] of 1.9 nM.
Substance “2008-035-001: GalNAc-conjugated modified ANGPTL3 siRNA, sense SEQ ID NO 42, antisense SEQ ID NO 28 (sense GAGAAGAACUACAUAUAAA; antisense UUUAUAUGUAGUUCUUCUCAG; GalNAc conjugated, chemically modified, pattern not given here) [Duplex 2008-035-001]” registered an IC50 with ANGPTL3 Protein [1] of 2.34 nM. Also, the “Average Inhibition in PCH %” value in the data set with ANGPTL3 Protein [2] (1nM) was 46.03%; in the data set with ANGPTL3 Protein [2] (5nM), 63.23%; with ANGPTL3 Protein [2] (25nM), 68.96%.
In the same order, the values of “2002-034-001: GalNAc-conjugated modified ANGPTL3 siRNA, sense SEQ ID NO 38, antisense SEQ ID NO 13 (sense CAUAGUGAAGCAAUCUAAU; antisense AUUAGAUUGCUUCACUAUGGA; GalNAc conjugated, chemically modified, pattern not given here) [Duplex 2002-034-001]” are 1.38 nM, 50.50%, 63.43% and 66.66%.
In the case of “2002-050-L96: L96-conjugated comparator siRNA, sense SEQ ID NO 43, antisense SEQ ID NO 18 (sense CAUAGUGAAGCAAUCUAAU; antisense AUUAGAUUGCUUCACUAUGGA; L96 GalNAc conjugate, position not given here, modification pattern not given here) [Duplex 2002-050-L96, reference compound]”, half-maximal inhibition in the data set with ANGPTL3 Protein [1] (IC50) was put at 2.6 nM.
Regarding “ARO-05488-003-NAG37: GalNAc-conjugated comparator ANGPTL3 siRNA, sense SEQ ID NO 44, antisense SEQ ID NO 45 (sense GCUCAACAUAUUUGAUCAGUA; antisense UACUGAUCAAAUAUGUUGAGC; GalNAc (NAG37) conjugate, chemistry not fully specified) [reference compound]”, the IC50 with ANGPTL3 Protein [1] came out at 7.19 nM. In addition, the “Average Inhibition in PCH %” value with ANGPTL3 Protein [2] (1nM) worked out at 28.48%; in the data set on ANGPTL3 Protein [2] (5nM), 49.83%; in the data set on ANGPTL3 Protein [2] (25nM), 60.00%.
For “2002-033-002: GalNAc-conjugated modified ANGPTL3 siRNA, sense SEQ ID NO 33, antisense SEQ ID NO 12 (sense CAUAGUGAAGCAAUCUAAU; antisense AUUAGAUUGCUUCACUAUGGA; GalNAc conjugated, chemically modified, pattern not given here) [Duplex 2002-033-002]”, the IC50 with ANGPTL3 Protein [1] is 0.84 nM.
On the same count and under the same terms, the value for “2008-018-002: GalNAc-conjugated modified ANGPTL3 siRNA, sense SEQ ID NO 36, antisense SEQ ID NO 27 (sense GAGAAGAACUACAUAUAAA; antisense UUUAUAUGUAGUUCUUCUCAG; GalNAc conjugated, chemically modified, pattern not given here) [Duplex 2008-018-002]” was 0.96 nM.
With “2008-018-001: GalNAc-conjugated modified ANGPTL3 siRNA, sense SEQ ID NO 41, antisense SEQ ID NO 27 (sense GAGAAGAACUACAUAUAAA; antisense UUUAUAUGUAGUUCUUCUCAG; GalNAc conjugated, chemically modified, pattern not given here) [Duplex 2008-018-001]”, in the data set on ANGPTL3 Protein [1], inhibition was half-maximal at 2.34 nM (IC50). Moreover, the “Average Inhibition in PCH %” value in the data set with ANGPTL3 Protein [2] (1nM) was found to be 59.56%; in the data set with ANGPTL3 Protein [2] (5nM), 73.29%; in the data set on ANGPTL3 Protein [2] (25nM), 76.55%.
In the case of “2008-010-002: GalNAc-conjugated modified ANGPTL3 siRNA, sense SEQ ID NO 35, antisense SEQ ID NO 27 (sense GAGAAGAACUACAUAUAAA; antisense UUUAUAUGUAGUUCUUCUCAG; GalNAc conjugated, chemically modified, pattern not given here) [Duplex 2008-010-002]”, in the data set on ANGPTL3 Protein [1], it took 0.98 nM to reach half-maximal inhibition (IC50).
Take “2002-018-002: GalNAc-conjugated modified ANGPTL3 siRNA, sense SEQ ID NO 34, antisense SEQ ID NO 13 (sense CAUAGUGAAGCAAUCUAAU; antisense AUUAGAUUGCUUCACUAUGGA; GalNAc conjugated, chemically modified, pattern not given here) [Duplex 2002-018-002]”: the IC50 in the data set with ANGPTL3 Protein [1] turned out to be 0.96 nM.
As to “2002-033-001: GalNAc-conjugated modified ANGPTL3 siRNA, sense SEQ ID NO 38, antisense SEQ ID NO 12 (sense CAUAGUGAAGCAAUCUAAU; antisense AUUAGAUUGCUUCACUAUGGA; GalNAc conjugated, chemically modified, pattern not given here) [Duplex 2002-033-001]”, the IC50 in the data set on ANGPTL3 Protein [1] amounted to 1.08 nM. In addition, the “Average Inhibition in PCH %” value in the data set on ANGPTL3 Protein [2] (1nM) was found to be 53.11%; in the data set on ANGPTL3 Protein [2] (5nM), 67.45%; in the data set on ANGPTL3 Protein [2] (25nM) it was 68.80%.
As for “2008-019-001: GalNAc-conjugated modified ANGPTL3 siRNA, sense SEQ ID NO 41, antisense SEQ ID NO 28 (sense GAGAAGAACUACAUAUAAA; antisense UUUAUAUGUAGUUCUUCUCAG; GalNAc conjugated, chemically modified, pattern not given here) [Duplex 2008-019-001]”, the IC50 with ANGPTL3 Protein [1] was 1.61 nM. For the same substance, the “Average Inhibition in PCH %” value in the data set with ANGPTL3 Protein [2] (1nM) was determined as 58.78%; with ANGPTL3 Protein [2] (5nM), 73.01%; in the data set with ANGPTL3 Protein [2] (25nM), 75.51%.
In the case of “2002-034-002: GalNAc-conjugated modified ANGPTL3 siRNA, sense SEQ ID NO 33, antisense SEQ ID NO 13 (sense CAUAGUGAAGCAAUCUAAU; antisense AUUAGAUUGCUUCACUAUGGA; GalNAc conjugated, chemically modified, pattern not given here) [Duplex 2002-034-002]”, the IC50 in the data set with ANGPTL3 Protein [1] came out at 1.3 nM. Also, the “Average Inhibition in PCH %” value in the data set on ANGPTL3 Protein [2] (1nM) was determined as 45.42%; in the data set on ANGPTL3 Protein [2] (5nM) it was 60.18%; with ANGPTL3 Protein [2] (25nM), 63.01%.
The substance “2008-019-002: GalNAc-conjugated modified ANGPTL3 siRNA, sense SEQ ID NO 36, antisense SEQ ID NO 28 (sense GAGAAGAACUACAUAUAAA; antisense UUUAUAUGUAGUUCUUCUCAG; GalNAc conjugated, chemically modified, pattern not given here) [Duplex 2008-019-002]” yielded an IC50 in the data set with ANGPTL3 Protein [1] of 1.11 nM. The “Average Inhibition in PCH %” value in the data set on ANGPTL3 Protein [2] (1nM) came to 52.37%; in the data set on ANGPTL3 Protein [2] (5nM), 70.28%; in the data set on ANGPTL3 Protein [2] (25nM), 73.74%.
